Source: PMC9127750, “Structure-based design of CDC42 effector interaction inhibitors for the treatment of cancer” (Cell reports, 2022)

System: WM3248 melanoma cells, 486 antibodies
Test: Reverse phase protein arrays (RPPA);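 on RPPA ACC1.R.C: ratio of treated to vehicle (0 µM) normalized linear protein signal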;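 on RPPA AMPK.a2 pS345.R.V: ratio of treated to vehicle (0 µM) normalized linear protein signal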;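 on RPPA AMPKa pT172.R.C: ratio of treated to vehicle (0 µM) normalized linear protein signal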;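 on RPPA ASNS.R.V: ratio of treated to vehicle (0 µM) normalized linear protein signal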;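 on RPPA AceCS1.R.V: ratio of treated to vehicle (0 µM) normalized linear protein signal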;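 on RPPA Akt1.R.V: ratio of treated to vehicle (0 µM) normalized linear protein signal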;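 on RPPA Atg5.R.C: ratio of treated to vehicle (0 µM) normalized linear protein signal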;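 on RPPA Bim.R.V: ratio of treated to vehicle (0 µM) normalized linear protein signal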
Format: cell-based, Human
Details: 20 uM
Text: Pellets were snap frozen in liquid nitrogen and shipped to MD Anderson Cancer Center core RPPA facility for RPPA analysis (Table S5). Three biological replicates for each sample were generated.
Nomenclatures on the RPPA heatmaps: name_of_antibody.species_of_antibody.status_of_antibody. V - antibody validated; C - validation of antibody in progress; Q - antibody nonspecific; E – under evaluation; antibodies raised in M - mouse, G - goat, R - rabbit, or T - rat.

CN(C)c1cccc(Nc2cc(-c3ccccc3)nc(C3CCNCC3)n2)c1 [ARN22089, N1,N1-dimethyl-N3-(6-phenyl-2-(piperidin-4-yl)pyrimidin-4-yl)benzene-1,3-diamine]
RPPA level HSP70.R.C (Average): 1.160
RPPA level Hexokinase.I.R.C (Average): 1.048
RPPA level Hexokinase.II.R.V (Average): 0.963
RPPA level Hif.1αR.C (Average): 0.904
RPPA level Histone.H3.R.V (Average): 5.173
RPPA level Histone.H3_pS10.R.V (Average): 2.026
RPPA level IDO.R.C (Average): 1.014
RPPA level IGF1R_pY1135_Y1136.R.V (Average): 0.992
RPPA level IGFBP2.R.V (Average): 0.899
RPPA level IGFBP3.M.V (Average): 0.907
RPPA level IGFRb.R.C (Average): 1.146
RPPA level IL.6.R.C (Average): 1.008
RPPA level IMP3.R.C (Average): 1.016
RPPA level INPP4b.R.C (Average): 0.905
RPPA level IR.b.R.C (Average): 1.149
RPPA level IRF.1.R.V (Average): 0.954
RPPA level IRF.3.R.V (Average): 0.948
RPPA level IRS1.R.V (Average): 1.105
RPPA level IRS2.R.C (Average): 1.211
RPPA level JAB1.M.C (Average): 0.972
RPPA level JNK2.R.V (Average): 0.925
RPPA level Jagged1.R.V (Average): 1.085
RPPA level KAP1.R.V (Average): 1.034
RPPA level KEAP1.R.V (Average): 0.960
RPPA level LAD1.R.V (Average): 1.019
RPPA level LC3A.B.R.C (Average): 1.119
RPPA level LCN2.R.V (Average): 1.461
RPPA level LDHA.R.C (Average): 0.979
RPPA level Lck.R.V (Average): 1.187
RPPA level Lyn.R.V (Average): 1.058
RPPA level MACC1.R.V (Average): 1.008
RPPA level MAPK_pT202_Y204.R.C (Average): 0.677
RPPA level MCT4.R.V (Average): 0.896
RPPA level MDM2_pS166.R.V (Average): 1.230
RPPA level MEK1.R.V (Average): 2.341
RPPA level MEK2.R.V (Average): 1.026
RPPA level MERIT40.R.C (Average): 0.895
RPPA level MERIT40_pS29.R.V (Average): 0.991
RPPA level METTL3.R.V (Average): 1.155
RPPA level MIF.R.C (Average): 0.950
RPPA level MIG6.R.V (Average): 0.989
RPPA level MITF.R.V (Average): 1.031
RPPA level MLH1.M.V (Average): 0.887
RPPA level MLKL.R.V (Average): 0.867
RPPA level MMP2.R.V (Average): 0.982
RPPA level MMP14.R.V (Average): 1.321
RPPA level MR1.M.C (Average): 1.026
RPPA level MRAP.R.C (Average): 1.126
RPPA level MSH2.R.C (Average): 0.913
RPPA level MSH6.R.C (Average): 1.164
RPPA level MSI2.R.C (Average): 1.099
RPPA level MTCO1.M.V (Average): 1.031
RPPA level MTSS1.M.C (Average): 0.981
RPPA level Mcl.1.R.V (Average): 0.838
RPPA level Melanoma.gp100.R.C (Average): 1.007
RPPA level Merlin.R.C (Average): 1.156
RPPA level Midkine.R.V (Average): 0.970
RPPA level Mitofusin.1.R.V (Average): 0.952
RPPA level Mitofusin.2.R.V (Average): 0.892
RPPA level Mnk1.R.V (Average): 0.957
RPPA level mTOR.R.V (Average): 0.941
RPPA level mTOR_pS2448.R.C (Average): 0.914
c.Jun_pS73.R.V RPPA level (Average): 0.970
c.Kit.R.V RPPA level (Average): 1.141
c.Met_pY1234_Y1235.R.V RPPA level (Average): 1.064
cGAS.R.V RPPA level (Average): 1.063
cdc2_pY15.R.C RPPA level (Average): 1.101
cdc25C.R.V RPPA level (Average): 0.883
RPPA ACC1.R.C (D.1): 0.904
RPPA ACC_pS79.R.V (D.1): 1.061
RPPA ACLY_pS455.R.V (D.1): 0.944
RPPA ACSL1.R.V (D.1): 1.054
RPPA ACVRL1.R.C (D.1): 1.049
RPPA ADAR1.M.V (D.1): 1.103
RPPA ALKBH5.R.V (D.1): 1.309
RPPA AMPK.a2_pS345.R.V (D.1): 0.933
RPPA AMPKa.R.C (D.1): 1.010
RPPA AMPKa_pT172.R.C (D.1): 1.099
RPPA ARID1A.R.C (D.1): 2.023
RPPA ASNS.R.V (D.1): 0.909
RPPA ATM.R.V (D.1): 0.752
RPPA ATP5A.M.C (D.1): 1.056
RPPA ATP5H.R.V (D.1): 1.455
RPPA ATR.R.V (D.1): 1.004
RPPA ATRX.R.C (D.1): 0.831
RPPA AceCS1.R.V (D.1): 1.063
RPPA Akt1.R.V (D.1): 0.712
RPPA Akt1_pS473.R.V (D.1): 0.750
RPPA Akt2.R.V (D.1): 0.746
RPPA Akt2_pS474.R.C (D.1): 0.847
RPPA Akt.R.V (D.1): 0.884
RPPA Akt_pS473.R.V (D.1): 0.449
RPPA Ambra1_pS52.R.C (D.1): 1.082
RPPA Annexin.I.M.V (D.1): 0.994
RPPA Annexin.VII.M.V (D.1): 1.057
RPPA Atg4B.R.C (D.1): 0.789
RPPA Atg5.R.C (D.1): 1.025
RPPA Atg7.R.V (D.1): 0.657
RPPA Aurora.A.R.C (D.1): 1.945
RPPA Aurora.ABC_pT288_pT232_pT198.R.C (D.1): 0.842
RPPA Aurora.B.R.V (D.1): 1.775
RPPA Axl.R.V (D.1): 0.594
RPPA B7.H3.R.C (D.1): 0.996
RPPA B7.H4.R.C (D.1): 0.838
RPPA B.Raf.R.C (D.1): 0.786
RPPA B.Raf_pS445.R.V (D.1): 0.752
RPPA BAP1.M.V (D.1): 1.051
RPPA BCL2A1.R.V (D.1): 0.907
RPPA BMK1.Erk5_pT218_Y220.R.V (D.1): 1.016
RPPA BRCA1.M.C (D.1): 1.165
RPPA BRD4.R.V (D.1): 1.680
RPPA Bad_pS112.R.V (D.1): 0.993
RPPA Bak.R.C (D.1): 1.006
RPPA Bcl2.R.C (D.1): 1.280
RPPA Bcl.xL.R.V (D.1): 0.996
RPPA Beclin.R.C (D.1): 1.111
RPPA BiP.GRP78.M.C (D.1): 1.051
RPPA Bid.R.C (D.1): 1.015
RPPA Bim.R.V (D.1): 1.098
RPPA X4E.BP1.R.V (D.1): 0.866
RPPA X4E.BP1_pS65.R.V (D.1): 0.834
RPPA X4E.BP1_pT37_T46.R.V (D.1): 0.918
RPPA X14.3.3.zeta.R.V (D.1): 1.017
RPPA X14.3.3βR.V (D.1): 1.192
RPPA X53BP1.R.V (D.1): 1.055
RPPA b.Actin.R.C (D.1): 1.239
RPPA b.Catenin.R.V (D.1): 1.006
RPPA b.Catenin_pT41_S45.R.V (D.1): 1.014
RPPA c.Abl.R.V (D.1): 0.991
RPPA c.Abl_pY412.R.C (D.1): 0.922
RPPA c.IAP2.R.C (D.1): 1.019
RPPA PREX1.R.V Average (average of 3): 0.950
RPPA PTEN.R.V Average (average of 3): 1.082
RPPA PTPN12.R.V Average (average of 3): 1.211
RPPA PYGB.R.V Average (average of 3): 1.080
RPPA PYGM.M.C Average (average of 3): 0.983
RPPA Puma.R.C Average (average of 3): 1.011
RPPA RBM15.R.V Average (average of 3): 0.995
RPPA RIP3.R.C Average (average of 3): 0.996
RPPA RIP.R.C Average (average of 3): 1.022
RPPA RPA32.R.V Average (average of 3): 1.078
RPPA RPA32_pS4_S8.R.C Average (average of 3): 1.531
RPPA RRM1.R.C Average (average of 3): 0.946
RPPA RRM2.R.C Average (average of 3): 0.922
RPPA RSK1.R.V Average (average of 3): 0.941
RPPA RSK.R.C Average (average of 3): 0.973
RPPA Rab11.R.C Average (average of 3): 1.059
RPPA Rad23A.R.C Average (average of 3): 0.946
RPPA Rad50.R.V Average (average of 3): 1.053
RPPA Rad51.R.C Average (average of 3): 0.940
RPPA Raptor.R.V Average (average of 3): 0.967
RPPA Rb.M.Q Average (average of 3): 0.977
RPPA Rb_pS807_S811.R.V Average (average of 3): 0.907
RPPA Rheb.M.C Average (average of 3): 1.147
RPPA Rictor.R.C Average (average of 3): 1.017
RPPA Rictor_pT1135.R.V Average (average of 3): 1.076
RPPA S6.M.V Average (average of 3): 0.982
RPPA S6_pS235_S236.R.V Average (average of 3): 0.339
RPPA S6_pS240_S244.R.V Average (average of 3): 0.423
RPPA SCD.M.V Average (average of 3): 0.961
RPPA SDHA.R.V Average (average of 3): 1.098
RPPA SF2.R.V Average (average of 3): 1.008
RPPA SFRP1.R.V Average (average of 3): 0.986
